Assay results reported in US20040191168A1, “Tumor cell killing by cell cycle checkpoint abrogation combined with Inhibition of the classical mitogen activated protein (map) kinase pathway” (priority 2000, published 2004).
Where “and” joins values, the source holds several entries; their conditions need not be identical. Equal values may be shown once.

Tests used:
U937 cells [1] = test: Morphological assessment of apoptosis (Wright-Giemsa cytospins) in U937 cells; type: cell-based, human; conditions: U937 cells; for apoptosis (cell death): UCN-01 150 nM, FIG. 1A
Method: (§1) Experimental Format. All of the experiments were performed using logarithmically growing cells (3-5×10^5 cells/ml). Cell suspensions were placed in sterile 25 cm^2 T-flasks (Corning, Corning, N.Y.) and incubated with MEK or PKC inhibitors for 30 min at 37° C. At the end of this period, UCN-01 (or in some cases, caffeine) was added to the suspension, and the flasks were placed in 37° C./5% CO2 incubator at various intervals, generally 18 h. In some studies, the p38 MAP kinase inhibitor SB203580 was added concurrently with MEK inhibitors. After drug treatment, cells were harvested and subjected to further analysis as described below.
Analysis of Apoptosis. […] For each condition, 5 to 10 randomly selected fields/condition were evaluated, encompassing at least 500 cells (Vrana and Grant, 2001). To confirm the results of morphological analysis, in some cases cells were also evaluated by TUNEL staining (Gorczyca et al., 1993) and assessment of oligonucleosomal DNA fragmentation of total DNA. DNA fragmentation was analyzed by 1.8% agarose gel electrophoresis as described previously (Jarvis et al., 1994). For TUNEL staining, cytocentrifuge preparations were obtained and fixed with 4% formaldehyde. The slides were treated with acetic acid/ethanol (1:2), stained with terminal transferase reaction mixture containing terminal transferase reaction buffer, 0.25 units/ ml terminal transferase, 2.5 mM CoCl2, and 2 pmol fluorescein-12-dUTP (Boehringer Mannheim, Indianapolis, Ind.), and visualized using fluorescence microscopy.

MDA-MB-231 cells = test: TUNEL apoptosis in MDA-MB-231 cells; type: cell-based, human; conditions: MDA-MB-231, 24 h; with 150 nM UCN-01; PD184352 10 μM, U0126 5 μM; FIG. 8A
From the text: Terminal Uridyl-Nucleotide End Labeling (TUNEL) for apoptosis.

U937 cells [2] = test: Loss of mitochondrial membrane potential (reduced DiOC6 uptake, flow cytometry) in U937 cells; type: cell-based, human; conditions: 18 h, PD184352 10 μM, GFX 1 μM, safingol 2 μM, mean ± SD
Method: as §1
Analysis of Mitochondrial Membrane Potential (ΔΨm). Cells 2×10^5 were incubated with 40 nM DiOC6 (Molecular Probes Inc., Eugene, Oreg.) in PBS at 37° C. for 20 min and then analyzed by flow cytometry as described previously (Wang et al., 1999).

MCF7 cells = conditions: MCF7, 24 h; with 150 nM UCN-01; PD184352 10 μM, U0126 5 μM; FIG. 8B
Method: Terminal Uridyl-Nucleotide End Labeling (TUNEL) for apoptosis. […] Cells were isolated 24 h after irradiation by trypsinizationi followed by centrifugation onto glass slides (cytospin). Terminal Uridyl-Nucleotide End Labeling (TUNEL) was performed on these cells as described previously [Wang et al., 1999; Park et al., 1999]. Randomly selected fields of fixed cells (150 cells per field, n=5 per slide) were counted initially using propidium iodide counter stain, followed by examination and counting of TUNEL positive staining cells of the same field under FITC/fluorescence light.

MAPK/ERK = test: p42 MAPK immune complex kinase assay in carcinoma cells; type: cell-based, human; conditions: MCF7, MDA-MB-231, T47D and DU145 cells; UCN-01 150 nM; MEK1/2 inhibitors (PD98059 25 μM, PD184352 10 μM, U0126 5 μM) given with UCN-01
Method: Immunoprecipitations from Lysates. Fifty microliters of Protein A agarose (Ag) slurry (25 μl bead volume) was washed twice with 1 ml PBS containing 0.1% (v/v) Tween 20, and resuspended in 0.1 ml of the same buffer. Antibodies (2 μg, 20 μl), serum (20 μl) were added to each tube and incubated (3 h, 4° C.). For pre-conjugated antibodies,10 μl of slurry (4 μg antibody) was used. Clarified equal aliquots of lysates (0.25 ml, 100 μg total protein) were mixed with Ag-conjugated antibodies in duplicate using gentle agitation (2.5 h, 4° C.). Ag-antibody-antigen complexes were recovered by centrifugation, the supernatant discarded, and washed (10 min) sequentially with 0.5 ml buffer A (twice), PBS and buffer B [25 mM Hepes, pH 7.4, 0.1 mM Na3VO4].
Assay of p42^MAPK activity. Immunoprecipitates were incubated (final volume 50 μl ) with 50 μl of buffer B containing 0.2 mM [γ-^32P]ATP (5000 cpm/pmol), 1 μM Microcystin-LR, 0.5 mg/ml myelin basic protein NP), which initiated reactions at time=0. After 20 min., 40 μl of the reaction mixtures were spotted onto a 2 cm circle of P81 paper (Whatman, Maidstone, England) and immediately placed into 180 mM phosphoric acid. Papers were washed four times (10 min each) with phosphoric acid, and once with acetone, and ^32P-incorporation into MBP was quantified by liquid scintillation spectroscopy.

U937 cells [3] = test: S-phase content by BrdUrd incorporation in U937 cells; type: cell-based, human; conditions: 12 and 18 h, UCN-01 150 nM, PD184352 10 μM, FIG. 3B
Method: Cell Cycle Analysis and S-phase Content. Cells (2×10^6) were pelleted at 4° C., resuspended, fixed at 4° C. with 67% ethanol overnight, and treated on ice with a propidium iodide solution containing 3.8 mM Na citrate, 0.5 mg/ml RNase A (Sigma Chemical Co.), and 0.01 mg/ml propidium iodide (Sigma Chemical Co.) for 3 h. Cell cycle analysis was performed by flow cytometry using Verity Winlist software (Topsham, Me.). Incorporation of BrdUrd was monitored to evaluate S-phase content. For each condition, 2 3 10 6 cells (cell density 5 5 3 10 5 /ml) were incubated with […] BrdUrd for 30 min at 37° C. After washing twice with 1% BSA/PBS, the cells were resuspended in 70% ethanol and fixed for 30 min on ice. The BrdUrd-labeled cells were denatured and nuclei released by incubation with 2 N HCl/0.5% Triton X-100 for 30 min at room temperature. After centrifugation, the pellet was resuspended in 0.1 M […] (pH 8.5) to neutralize the acid. […] After washing once with 0.5% Tween 20/1% BSA/PBS, the cells were resuspended in PBS containing […] propiditun iodide and analyzed by flow cytometry. The percentage of S-phase cells was determined by measuring BrdUrd FITC-positive part in a dot plot of FL-3 (red fluorescence) against FL-1 (green fluorescence).

Row | Compound | Apoptotic cells (%) (U937 cells [1]; 18 h, PD184352 10 μM, GFX 1 μM, safingol 2 μM, mean ± SD) | apoptosis (cell death) (U937 cells [1]; 18 h, PD184352 10 μM) | apoptosis in combination with UCN-01 (MDA-MB-231 cells) | "Low" DiOC6 (% cells) (U937 cells [2]) | apoptosis in combination with UCN-01 (MCF7 cells) | MAPK/ERK activity (immune complex kinase assay) (MAPK/ERK) | number of BrdUrd-positive (S-phase) cells (U937 cells [3]) | percentage of apoptotic cells (U937 cells [1]; 24 hr, 100 nM UCN-01, 10 μM LY294002, FIG. 14)
1 | O=C(NOCC1CC1)c1ccc(F)c(F)c1Nc1ccc(I)cc1Cl [PD184352] | 1.8 ± 0.1% and 2.1 ± 0.1% | 10% | enhanced apoptosis | 12.1 ± 0.2% and 14.7 ± 1.0% | enhanced apoptosis | opposed | modest decline | –
2 | CN[C@@H]1C[C@H]2O[C@@](C)([C@@H]1OC)n1c3ccccc3c3c4c(c5c6ccccc6n2c5c31)C(=O)N[C@H]4O [UCN-01, 7-hydroxystaurosporine] | – | 10% | – | – | – | activation of MAPK/ERK was observed | no effect | about 20%
